# Results reported in patent US20220016079A1, “COMBINATION TREATMENT OF HIV INFECTIONS” (priority 2018, published 2022).
# Experiments:
# BIRC2 = target: T1, BIRC2 (Homo sapiens, UniProt Q13490); test: BIRC2 (cIAP1) degradation by Western blotting; format: cell-based
# T1 construct: endogenous in cells; host or cells: 2D10, 293T and CD4+ T cells
# Experimental: It was investigated whether Debio-1143 reverses HIV-1 latency by acting on the NF-κB pathway. Canonical and non-canonical NF-κB signaling pathways play an important role in the reactivation of latent HIV-1, implicating its regulation as an important therapeutic strategy for latency reversal.
# Method: 2D10 (A) or 293T (B) and CD4+ T cells (C) cells were treated with DMSO, Debio-1143 (1 μM) and TNFα (10 ng/ml) for the indicated times and analyzed by Western blotting for BIRC2 and IkBα protein expression using antibodies specifically detecting human BIRC2, human IkBα, or human CypA, such as commercially available (e.g. from R&D Systems, Cell Signaling, Santa Cruz Biotechnology, or other sources).
# [1] = test system: latent HIV-1 in 2D10 cells; test: HIV-1 reactivation in latent GFP-reporter 2D10 cells, Debio 1143 and other LRAs alone or in combination; format: cell-based; settings: single agents, 48 h
# Experimental: We compared the efficacy of Debio-1143 at reversing HIV-1 latency with that of other LRAs. We then analyzed the cytotoxicity of Debio-1143 with that of the other LRAs on 2D10 cells. Drug titration was conducted.
# Methods: HIV-1 latent GFP-reporter 2D10 cells (100,000 cells/100 μL) were treated in triplicate for 48 h with increasing concentrations of either only Debio-1143 or the LRAs (2000 nM or 20000 nM), or with Debio 1143 (2000 nM or 20000 nM) in combination with the LRAs at a single predetermined concentration (see Table 2). HIV reactivation was analyzed via GFP expression by flow cytometry.
# [2] = test system: HIV-infected resting CD4+ T cells (rCD4); test: Lysis of HIV-infected resting CD4+ T cells (rCD4) by CD8+ T cells and NK cells (LDH activity); format: cell-based, human; settings: 0, 1 and 10 μM, mono- or co-cultures of rCD4, CD4+, 24 and 48 h
# Experimental: It was investigated whether the Debio-1143-induced reversal of HIV-1 latency, by restoring HIV-1 protein production in rCD4, would permit viral peptide exposure with MHC on infected rCD4+ T cells and allow recognition and lysis by CD8+ T cells and/or NK cells.
# Method: Human CD4+ T cells, CD8+ T cells and NK cells were isolated following manufacturer's instruction (beads coated with specific antibodies) from one blood donor (500 mL). Ninety percent of CD4+ T cells were infected with HIV-1 (JR-CSF) (1 μg of p24), incubated for 4 days to allow establishment of infection, and then treated with ART for 3 days. Suppression of replication was verified by p24 ELISA in supernatants. rCD4 were then isolated following manufacturer's instruction. Infected and ART-treated rCD4 were mixed with uninfected CD4+ T cells, CD8+ T cells and NK cells a 1:1 ratio (100,000 cells) for 24 and 48 in triplicate. Mono-culture of each cell populations were used as controls. DMSO or Debio-1143 (0, 1 and 10 μM) were added to mono- or co-cultures for 24 and 48 h. Cell killing was quantified by LDH activity.
# 2D10 cells = test: Cytotoxicity by LDH assay in 2D10 cells; format: cell-based; settings: 0 to 20 μM, 48 h
# Experimental: Drug titration was conducted.
# For analysis of cell viability, cells (100,000 cells/100 μL) were treated in triplicate for 48 h with increasing concentrations of Debio-1143 or other known LRAs (0 to 20 μM). Cellular cytotoxicity was analyzed by Lactate dehydrogenase (LDH) assay. LDH is an oxidoreductase enzyme that catalyzes the interconversion of pyruvate and lactate. Cells release LDH into the bloodstream after tissue damage or red blood cell hemolysis. Since LDH is a fairly stable enzyme, it has been widely used to evaluate the presence of damage and toxicity of tissue and cells. In this particular, LDH reduces NAD to NADH, which is specifically detected by colorimetric (490 nm) assay.
# [3] = test system: latent HIV in resting CD4+ T-lymphocytes; test: HIV-1 reactivation in resting CD4+ T cells from PBMCs of three ART-treated HIV patients (HIV RNA in supernatant); format: cell-based, human
# Source text: The experiments of this example analyzed the ability of IAPa, ICIs, or IAPa/ICI combinations at reactivating latent HIV in resting CD4+ T-lymphocytes isolated from peripheral blood monocytic cells (PBMCs) derived from HIV patients currently under ART.
# Method: Resting CD4+ T cells were isolated from PBMCs of three ART-treated HIV patients by negative selection and magnetic separation (Easysep Mouse/Human Chimera Isolation Kits from […] technologies). Isolated resting CD4+ T cells (50,000 cells/50 μL) were treated in duplicate for 48h with different IAPa (1 μM) or ICI (10 μg/ml) in monotherapy, or the IAPa/ICI combinations. Amounts of virions released from cells were quantified at the indicated time points by quantifying HIV RNA levels (HIV RNA copies/mL) in supernatant of cell culture using one-step reverse transcriptase quantitative real-time PCR (ABI custom TaqMan Assays-by-Design) according to the manufacturer's instructions. Primers were 5-[…]-3 and 5-[…]-3, and MGB probe 5-FAM-[…]-Q-3, where FAM is 6-carboxyfluorescein.
# (§1) The experiment was carried out using the same agents as described above for Example 8.1 (with the exception that no birinapant was used).
# [4] = test system: latent HIV-1 in resting CD4+ T cells; test: Ex vivo HIV-1 reactivation in human resting CD4+ T cells from ART-treated HIV-1-infected humanized BLT mice (HIV RNA in supernatant); format: cell-based
# Experimental: The efficacy of IAPa, ICI or IAPa/ICI combinations in reversing HIV-1 latency was tested in resting CD4+ T cells derived from ART-treated HIV-1-infected humanized BLT mice.
# Human resting CD4+ T cells from ten mice were isolated from blood, thymic organoid, lung, spleen, bone marrow, lymph nodes and liver. Isolated human resting CD4+ T cells were pooled, counted, split and treated in duplicate for 48 h with different IAPa (1 μM) or ICI (10 μg/ml) in monotherapy, or the IAPa/ICI combinations. Amounts of virions released from cells were quantified at the indicated time points by quantifying HIV RNA levels (HIV RNA copies/mL) in supernatant of cell culture using one-step reverse transcriptase quantitative real-time PCR (ABI custom TaqMan Assays-by-Design) according to the manufacturer's instructions. Primers were 5-[…]-3 and 5-[…]-3, and MGB probe 5-FAM-[…]-Q-3, where FAM is 6-carboxyfluorescein.
# as §1
# [5] = IAPa 1 μM monotherapy (0.1% DMSO, no ICI), 48 h
# [6] = IAPa 1 μM with Control IgG1, 48 h
# [7] = IAPa 1 μM with Control IgG2, 48 h
# T1 sequence (Q13490 whole entry): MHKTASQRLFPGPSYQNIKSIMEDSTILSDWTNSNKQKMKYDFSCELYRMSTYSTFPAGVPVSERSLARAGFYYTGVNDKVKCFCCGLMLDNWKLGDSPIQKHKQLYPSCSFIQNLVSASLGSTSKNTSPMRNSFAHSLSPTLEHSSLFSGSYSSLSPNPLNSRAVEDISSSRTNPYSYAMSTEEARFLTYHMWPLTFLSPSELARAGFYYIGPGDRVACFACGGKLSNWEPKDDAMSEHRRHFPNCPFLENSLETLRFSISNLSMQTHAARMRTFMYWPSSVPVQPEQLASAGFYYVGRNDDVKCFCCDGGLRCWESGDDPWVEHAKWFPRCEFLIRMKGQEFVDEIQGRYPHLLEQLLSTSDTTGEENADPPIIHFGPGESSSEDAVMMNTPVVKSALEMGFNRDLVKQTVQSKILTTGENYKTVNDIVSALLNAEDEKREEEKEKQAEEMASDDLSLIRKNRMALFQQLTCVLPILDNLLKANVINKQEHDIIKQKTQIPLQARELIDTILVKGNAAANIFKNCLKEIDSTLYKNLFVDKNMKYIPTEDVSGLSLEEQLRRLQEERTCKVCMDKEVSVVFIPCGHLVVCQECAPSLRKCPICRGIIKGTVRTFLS
compound,measurement,setting,value
"CN[C@@H](C)C(=O)N[C@H]1CN(C(=O)CC(C)C)CC[C@H]2CC[C@@H](C(=O)NC(c3ccccc3)c3ccccc3)N2C1=O [Debio 1143, (5S,8S,10aR)-N-benzhydryl-5-((S)-2-(methylamino)propanamido)-3-(3-methylbutanoyl)-6-oxodecahydropyrrolo[1,2-a][1,5]diazocine-8-carboxamide]",time of BIRC2 degradation,"BIRC2; 1 μM, 2D10 and 293T cells",< 15 min
same,BIRC2 degradation,BIRC2; CD4+ T cells,dose-dependent
same,HIV-1 latency reversal (GFP expression),[1],reversed HIV-1 latency
same,potency as LRA compared with other LRAs,[1],one of the most potent LRA
same,cell killing (LDH activity),[2],Low cell death was observed in all mono- and co-cultures except for the rCD4:CD8+ T cells co-culture
same,cytotoxicity (LDH assay),2D10 cells,did not exhibit any cytotoxicity
same,latency reversal class (HIV RNA copies/ml in supernatant),[3]; [5],1 (Between 501 and 1000 RNA copies/ml were classified as “1”)
same,latency reversal class (HIV RNA copies/ml in supernatant),[3]; [6],1 (Between 501 and 1000 RNA copies/ml were classified as “1”)
same,latency reversal class (HIV RNA copies/ml in supernatant),[3]; [7],1 (Between 501 and 1000 RNA copies/ml were classified as “1”)
same,latency reversal class (HIV RNA copies/ml in supernatant),[4]; [5],2 (Between 2501 and 5000 RNA copies/ml were classified as “2”)
same,latency reversal class (HIV RNA copies/ml in supernatant),[4]; [6],2 (Between 2501 and 5000 RNA copies/ml were classified as “2”)
same,latency reversal class (HIV RNA copies/ml in supernatant),[4]; [7],2 (Between 2501 and 5000 RNA copies/ml were classified as “2”)
